Source: US20030134779A1, “Method and composition for treatment and/or prevention of antibiotic-resistant microorganism infections” (priority 2002, published 2003)

Legend:
Assay type in all cases: cell-based, Staphylococcus aureus
S. aureus strains = experiment: MIC / FIC determination, summary over strains; conditions: with 0.5 mg/ml LF; all tested strains except ATCC 25923 and SHY97-3906 (needed 1 mg/ml LF)
Excerpt: Staphylococcus aureus strains ATCC 25923 and 6538 and Escherichia coli ATCC 25922 were obtained from the American Type Culture Collection. Eight bovine mastitis clinical isolates of S. aureus (SHY97-3906, -3923, -4085 -4242, -4320 and -4343, RFT-1 and RFT-5) and one isolate of E. coli SHY97-3923-2 and one isolate of Kiebsiella pneumoniae SHY99-723-1 were kindly provided by the Laboratoire Provincial de Pathologie Animale of St-Hyacinthe and of Rock-Forest (Quebec, Canada), respectively. Nine β-lactam antibiotics resistant S. aureus strains (PC-1, NCTC 9789, 2076, 22260, ST79/741, 3804, RN9, FAR8, and FAR10) were obtained from Vanderbilt University School of Medicine (Nashville, Tenn., USA). […]
The MICs were determined by both macrodilution (1 ml/tube) and microdilution (100 μl/well) in sterile 96 well microtiter plates (International Nunc, Napierville, Ill.) techniques in three separate experiments according to the National Committee for Clinical Laboratory Standards (1992 and 1999) in three separate experiments. […] Effect of LF combination with antibiotic on MICs were determined by adding 0.5 mg or 1 mg/ml of LF to each antibiotic dilution. […] Effect of LF or LFC combination with antibiotic on MIC was also determined by checkerboard method using 96 well microtiter plates. […] The fractional inhibitory concentration (FIC) was calculated as described by Eliopoulos and Moellering (1991). […]

S. aureus SHY97-3906 = experiment: Checkerboard MICs and FIC index, penicillin with bovine LF; conditions: for Decrease (of MIC of penicillin): by combination with bovine LF
Method: (§1) The MICs were determined by both macrodilution (1 ml/tube) and microdilution (100 μl/well) in sterile 96 well microtiter plates (International Nunc, Napierville, Ill.) techniques in three separate experiments according to the National Committee for Clinical Laboratory Standards (1992 and 1999) in three separate experiments. Serial 2-fold dilutions in MHB of LF, LFC, antibiotic or combination of LF or LFC with antibiotic were inoculated with an overnight culture at a final inoculum of 10^6 cfu/ml in MHB. Effect of LF combination with antibiotic on MICs were determined by adding 0.5 mg or 1 mg/ml of LF to each antibiotic dilution. The MIC was defined as the lowest concentration of drug (highest dilution) that caused a complete inhibition of bacterial growth after an incubation of 18 h. Effect of LF or LFC combination with antibiotic on MIC was also determined by checkerboard method using 96 well microtiter plates. Each antibiotic dilution (50 μl) was serially added to the wells in vertical rows starting from the top (lower dilution) to the bottom. Lactoferrin or LFC (50 μl) were added to 50 μl of each antibiotic dilution and serially diluted starting at the left (lower dilution) to the right. After inoculation, the final concentration of antibiotic from top to bottom were 32 to 8, 2 to 0.5, 0.5 to 0.125 μg/ml for penicillin, cefazolin and neomycin, respectively. From left to right, the concentration of LF or LFC were 25 to 0.0244 mg/ml or 256 to 0.5 μg/ml respectively in a final volume of 100 μl/well. The microplate's were incubated at 37° C. for 24 h. Bacterial growth was measured optically at 540 nm using Spectra Max 250 Microplate Spectrophotometer System of Molecular Device (Fisher Scientific, Ottawa, Canada). Tubes were incubated at 37° C. for 18 h and bacterial growth was measured by visual examination and optically at 540 nm using a spectrophotometer (Philips PU 8800; Pye Unican Ltd, Cambridge, UK). The fractional inhibitory concentration (FIC) was calculated as described by Eliopoulos and Moellering (1991).
(§2) FIC antibiotic A=MICantibiotic A (in the presence of antibiotic B)/MICantibiotic A alone. FIC Index=FICantibiotic A+FICantibiotic B
(§3) The effects of the antibiotics were considered to be synergistic or indifferent when FIC Index was<1 or>1, respectively.

S. aureus SHY97-4320 [1] = experiment: as above; conditions: for Decrease (of MIC of penicillin): by combination with bovine LF
Method: as §1, §2, §3

S. aureus PC-1 [2] = experiment: as above; conditions: by combination with bovine LF
Method: as §1, §2, §3

S. aureus PC-1 [3] = experiment: Cell morphology by transmission electron microscopy; conditions: penicillin G 8 μg/ml alone; 4-h
Method: Bacterial cells were grown overnight on MHA or MHB containing sub-MICs of penicillin G with or without LF or LFC. Microorganisms were prepared for transmission electron microscopy by fixation with glutaraldehyde followed by ferritin labelling. This method allows good- preservation of capsular material. Briefly, bacterial cells grown in the presence or absence of antibiotics were fixed in cacodylate buffer (0.1 M, pH 7.0) containing 5% (v/v) glutaraldehyde, for 2 h at 20° C. Fixed microorganims were suspended in cacodylate buffer and allowed to react with the polycationic ferritin (Sigma Chemicals, St-Louis, Mo.; final concentration 1.0 mg/ml) for 30 min at 20° C. The reaction was slowed down by 10-fold dilution with buffer, and the microorganisms were centrifuged and washed three times in cacodylate buffer. Bacterial cells were then immobilized in 4% (w/v) agar, washed 5 times in cacodylate buffer and post-fixed with 2% (w/v) osmium tetroxide for 2 h. Washings were repeated as above, and the samples dehydrated in a graded series of acetone washes. Samples were then washed twice in propylene oxide and embedded in Spurr low-viscosity resin. Thin sections were post-stained with uranyl acetate and lead citrate and examined with an electron microscope (Philips 201) at an accelerating voltage of 60 kV.
Bacterial cells of PC-1 (a constitutively high producing β-lactamase strain) were grown overnight in MHB containing 8 μg/ml of penicillin G, 16 μg/ml of LFC alone or in combination for 4-h at 37° C. with agitation at 150 rpm. Bacteria cell morphology was evaluated by transmission electron microscopy after fixation and ferritin labelling method as previously described.

S. aureus SHY97-4320 [4] = experiment: SDS-PAGE protein profile of whole cells; conditions: compound alone: 8 μg/ml penicillin G or 1 mg/ml LF; 4-h of growth
Method: Staphylococcus aureus SHY97-4320 cells growth in MHB containing test compounds were suspended in electrophoresis sample buffer containing 2% sodium dodecyl sulfate (SDS) and 5% 2-mercaptoethanol to a final concentration of 0.1 g per ml. The samples were heated to 100° C. for 5 min before being loaded for electrophoresis on a discontinuous 0.1% SDS-polyacrylamide gel (SDS PAGE) with 6% polyacrylamide stacking gel and 10 or 12% polyacrylamide running gel. Gels were run on a Mini-Protean® II apparatus (Bio Rad laboratories, Richmond, Calif.). Protein profiles were visualised by staining with coomassie brilliant blue R-250 or by silver staining.

CC1(C)S[C@@H]2[C@H](NC(=O)Cc3ccccc3)C(=O)N2[C@H]1C(=O)O [penicillin G, Penicillin G]
increase of inhibitory activity of penicillin (S. aureus strains): two-fold
MIC (S. aureus SHY97-3906; Staphylococcus aureus, SHY973906, in combination with bovine LF, checkerboard): 0.125 µg/mL
Decrease (of MIC of penicillin) (S. aureus SHY97-3906; listed as Penicillin): 4 fold
Decrease (of MIC of penicillin) (S. aureus SHY97-3906; listed as penicillin): four fold
MIC (S. aureus SHY97-4320 [1]; Staphylococcus aureus, SHY974320, in combination with bovine LF, checkerboard): 16 µg/mL
Decrease (of MIC of penicillin) (S. aureus SHY97-4320 [1]; listed as Penicillin): 4 fold
Decrease (of MIC of penicillin) (S. aureus SHY97-4320 [1]; listed as penicillin): four fold
Decrease (of MIC of penicillin) (S. aureus PC-1 [2]; listed as Penicillin): ≧2 fold
Decrease (of MIC of penicillin) (S. aureus PC-1 [2]; listed as penicillin): ≥ 2 fold
cell morphology (S. aureus PC-1 [3]): no effects on morphology
proteins of approximately 59, 42 and 27 kDa in protein profile (S. aureus SHY97-4320 [4]): can be seen
